{
  "source": "patent US20230085307A1",
  "about": "“PYRIDAZINONE COMPOUND AND HERBICIDE” (NISSAN CHEMICAL CORPORATION, priority 2019, published 2023)",
  "key": {"late watergrass": {"test_system": "late watergrass", "assay": "Test Example 1: herbicidal activity, application before weed generation under submerged conditions (Table 16, symbol A)", "format": "in vivo, late watergrass (Echinochloa oryzicola)", "conditions": "320 g/ha applied herbicide", "summary_of_the_method": "(§1)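 Alluvial soil was flooded to 4 cm depth, weed seeds were sown mixed and 2.5-leaf rice seedlings were transplanted. On sowing day, the compound's emulsion, diluted in water to a set dose, was applied to the water surface. Plants grew at 25–30 °C and were scored 0–5 after three weeks.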"}, "Japanese bulrush": {"test_system": "Japanese bulrush", "assay": "Test Example 1: herbicidal activity, application before weed generation under submerged conditions (Table 16, symbol B)", "format": "in vivo, Japanese bulrush (Schoenoplectus juncoides)", "conditions": "320 g/ha applied herbicide", "summary_of_the_method": "as §1"}, "oval-leafed pondweed": {"test_system": "oval-leafed pondweed", "assay": "Test Example 1: herbicidal activity, application before weed generation under submerged conditions (Table 16, symbol C)", "format": "in vivo, oval-leafed pondweed (Monochoria vaginalis)", "conditions": "320 g/ha applied herbicide", "summary_of_the_method": "as §1"}, "barnyard grass [1]": {"test_system": "barnyard grass", "assay": "Test Example 3: herbicidal effect by foliage application, Wagner pot (Table 18, symbol H)", "format": "in vivo, barnyard grass (Echinochloa crus-galli)", "conditions": "amount of applied herbicide 320 g/ha", "summary_of_the_method": "(§2)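 Plants were sown in alluvial soil held under 0.1–0.5 cm standing water and grown 14 days in a greenhouse at 25–30 °C. An emulsifiable formulation, water-diluted to the set dose, was then sprayed onto the foliage, and effects were scored three weeks later using previously defined criteria.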"}, "Chinese sprangletop": {"test_system": "Chinese sprangletop", "assay": "Test Example 3: herbicidal effect by foliage application, Wagner pot (Table 18, symbol D)", "format": "in vivo, chinese sprangletop (Leptochloa chinensis)", "conditions": "amount of applied herbicide 320 g/ha", "summary_of_the_method": "as §2"}, "rice flat sedge": {"test_system": "rice flat sedge", "assay": "Test Example 3: herbicidal effect by foliage application, Wagner pot (Table 18, symbol E)", "format": "in vivo, rice flat sedge (Cyperus iria)", "conditions": "amount of applied herbicide 320 g/ha", "summary_of_the_method": "as §2"}, "southern crabgrass [2]": {"test_system": "southern crabgrass", "assay": "Test Example 4: herbicidal effect by soil treatment (Table 19, symbol F)", "format": "in vivo, southern crabgrass (Digitaria ciliaris)", "conditions": "amount of applied herbicide 320 g/ha", "summary_of_the_method": "(§3)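 Emulsion of test compound, water-diluted to predetermined amount, sprayed on soil after sowing (seed depth ~1.5 cm, sterilized diluvial soil). Greenhouse, 25–30° C. Effect graded at three weeks post-spray.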"}, "green foxtail [3]": {"test_system": "green foxtail", "assay": "Test Example 4: herbicidal effect by soil treatment (Table 19, symbol G)", "format": "in vivo, green foxtail (Setaria viridis)", "conditions": "amount of applied herbicide 320 g/ha", "summary_of_the_method": "as §3"}, "barnyard grass [4]": {"test_system": "barnyard grass", "assay": "Test Example 4: herbicidal effect by soil treatment (Table 19, symbol H)", "format": "in vivo, barnyard grass (Echinochloa crus-galli)", "conditions": "amount of applied herbicide 320 g/ha", "summary_of_the_method": "as §3"}, "wild oat [5]": {"test_system": "wild oat", "assay": "Test Example 4: herbicidal effect by soil treatment (Table 19, symbol I)", "format": "in vivo, wild oat (Avena fatua)", "conditions": "amount of applied herbicide 320 g/ha", "summary_of_the_method": "as §3"}, "Italian ryegrass [6]": {"test_system": "Italian ryegrass", "assay": "Test Example 4: herbicidal effect by soil treatment (Table 19, symbol K)", "format": "in vivo, Italian ryegrass (Lolium multiflorum)", "conditions": "amount of applied herbicide 320 g/ha", "summary_of_the_method": "as §3"}, "windgrass [7]": {"test_system": "windgrass", "assay": "Test Example 4: herbicidal effect by soil treatment (Table 19, symbol L)", "format": "in vivo, windgrass (Apera spica-venti)", "conditions": "amount of applied herbicide 320 g/ha", "summary_of_the_method": "as §3"}, "velvetleaf [8]": {"test_system": "velvetleaf", "assay": "Test Example 4: herbicidal effect by soil treatment (Table 19, symbol M)", "format": "in vivo, velvetleaf (Abutilon theophrasti)", "conditions": "amount of applied herbicide 320 g/ha", "summary_of_the_method": "as §3"}, "redroot pigweed [9]": {"test_system": "redroot pigweed", "assay": "Test Example 4: herbicidal effect by soil treatment (Table 19, symbol N)", "format": "in vivo, redroot pigweed (Amaranthus retroflexus)", "conditions": "amount of applied herbicide 320 g/ha", "summary_of_the_method": "as §3"}, "lambsquarters [10]": {"test_system": "lambsquarters", "assay": "Test Example 4: herbicidal effect by soil treatment (Table 19, symbol O)", "format": "in vivo, lambsquarters (Chenopodium album)", "conditions": "amount of applied herbicide 320 g/ha", "summary_of_the_method": "as §3"}, "chickweed [11]": {"test_system": "chickweed", "assay": "Test Example 4: herbicidal effect by soil treatment (Table 19, symbol P)", "format": "in vivo, common chickweed (Stellaria media)", "conditions": "amount of applied herbicide 320 g/ha", "summary_of_the_method": "as §3"}, "persian speedwell [12]": {"test_system": "persian speedwell", "assay": "Test Example 4: herbicidal effect by soil treatment (Table 19, symbol R)", "format": "in vivo, Persian speedwell (Veronica persica)", "conditions": "amount of applied herbicide 320 g/ha", "summary_of_the_method": "as §3"}, "southern crabgrass [13]": {"test_system": "southern crabgrass", "assay": "Test Example 5: herbicidal effect by foliage application, plastic box (Table 20, symbol F)", "format": "in vivo, southern crabgrass (Digitaria ciliaris)", "conditions": "foliage application, 320 g/ha, evaluated three weeks after application", "summary_of_the_method": "(§4)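 Post-emergence foliar test in sterilized diluvial soil. Compound applied as water-diluted emulsion at a predetermined rate to 14-day-old plants; evaluation at three weeks.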"}, "green foxtail [14]": {"test_system": "green foxtail", "assay": "Test Example 5: herbicidal effect by foliage application, plastic box (Table 20, symbol G)", "format": "in vivo, green foxtail (Setaria viridis)", "conditions": "foliage application, 320 g/ha, evaluated three weeks after application", "summary_of_the_method": "as §4"}, "barnyard grass [15]": {"test_system": "barnyard grass", "assay": "Test Example 5: herbicidal effect by foliage application, plastic box (Table 20, symbol H)", "format": "in vivo, barnyard grass (Echinochloa crus-galli)", "conditions": "foliage application, 320 g/ha, evaluated three weeks after application", "summary_of_the_method": "as §4"}, "wild oat [16]": {"test_system": "wild oat", "assay": "Test Example 5: herbicidal effect by foliage application, plastic box (Table 20, symbol I)", "format": "in vivo, wild oat (Avena fatua)", "conditions": "foliage application, 320 g/ha, evaluated three weeks after application", "summary_of_the_method": "as §4"}, "blackgrass": {"test_system": "blackgrass", "assay": "Test Example 5: herbicidal effect by foliage application, plastic box (Table 20, symbol J)", "format": "in vivo, blackgrass (Alopecurus myosuroides)", "conditions": "foliage application, 320 g/ha, evaluated three weeks after application", "summary_of_the_method": "as §4"}, "Italian ryegrass [17]": {"test_system": "Italian ryegrass", "assay": "Test Example 5: herbicidal effect by foliage application, plastic box (Table 20, symbol K)", "format": "in vivo, Italian ryegrass (Lolium multiflorum)", "conditions": "foliage application, 320 g/ha, evaluated three weeks after application", "summary_of_the_method": "as §4"}, "windgrass [18]": {"test_system": "windgrass", "assay": "Test Example 5: herbicidal effect by foliage application, plastic box (Table 20, symbol L)", "format": "in vivo, windgrass (Apera spica-venti)", "conditions": "foliage application, 320 g/ha, evaluated three weeks after application", "summary_of_the_method": "as §4"}, "velvetleaf [19]": {"test_system": "velvetleaf", "assay": "Test Example 5: herbicidal effect by foliage application, plastic box (Table 20, symbol M)", "format": "in vivo, velvetleaf (Abutilon theophrasti)", "conditions": "foliage application, 320 g/ha, evaluated three weeks after application", "summary_of_the_method": "as §4"}, "redroot pigweed [20]": {"test_system": "redroot pigweed", "assay": "Test Example 5: herbicidal effect by foliage application, plastic box (Table 20, symbol N)", "format": "in vivo, redroot pigweed (Amaranthus retroflexus)", "conditions": "foliage application, 320 g/ha, evaluated three weeks after application", "summary_of_the_method": "as §4"}, "lambsquarters [21]": {"test_system": "lambsquarters", "assay": "Test Example 5: herbicidal effect by foliage application, plastic box (Table 20, symbol O)", "format": "in vivo, lambsquarters (Chenopodium album)", "conditions": "foliage application, 320 g/ha, evaluated three weeks after application", "summary_of_the_method": "as §4"}, "chickweed [22]": {"test_system": "chickweed", "assay": "Test Example 5: herbicidal effect by foliage application, plastic box (Table 20, symbol P)", "format": "in vivo, common chickweed (Stellaria media)", "conditions": "foliage application, 320 g/ha, evaluated three weeks after application", "summary_of_the_method": "as §4"}, "persian speedwell [23]": {"test_system": "persian speedwell", "assay": "Test Example 5: herbicidal effect by foliage application, plastic box (Table 20, symbol R)", "format": "in vivo, Persian speedwell (Veronica persica)", "conditions": "foliage application, 320 g/ha, evaluated three weeks after application", "summary_of_the_method": "as §4"}},
  "data": [
    {"compound": "CCCC(=O)Oc1c(C)nn(C)c(=O)c1-c1c(-c2cccc(OC(F)(F)F)c2)sc2ccc(F)cc12", "note": "[2-237]", "values": [
      {"measurement": "Herbicidal effect on A: late watergrass (grade 0-5)", "setting": "late watergrass", "value": "3 (Herbicidal rate of 40% or more and less than 70%)"},
      {"measurement": "Herbicidal effect on B: Japanese bulrush (grade 0-5)", "setting": "Japanese bulrush", "value": "0 (Herbicidal rate of 5% or less (almost no effect))"},
      {"measurement": "Herbicidal effect on C: oval-leafed pondweed (grade 0-5)", "setting": "oval-leafed pondweed", "value": "0 (Herbicidal rate of 5% or less (almost no effect))"},
      {"measurement": "herbicidal effect on H: barnyard grass", "setting": "barnyard grass [1]", "value": "3 (Herbicidal rate of 40% or more and less than 70%)"},
      {"measurement": "herbicidal effect on D: Chinese sprangletop", "setting": "Chinese sprangletop", "value": "4 (Herbicidal rate of 70% or more and less than 90%)"},
      {"measurement": "herbicidal effect on E: rice flat sedge", "setting": "rice flat sedge", "value": "5 (Herbicidal rate of 90% or more (almost completely withered))"},
      {"measurement": "herbicidal effect on F: southern crabgrass", "setting": "southern crabgrass [2]", "value": "0 (Herbicidal rate of 5% or less (almost no effect))"},
      {"measurement": "herbicidal effect on G: green foxtail", "setting": "green foxtail [3]", "value": "0 (Herbicidal rate of 5% or less (almost no effect))"},
      {"measurement": "herbicidal effect on H: barnyard grass", "setting": "barnyard grass [4]", "value": "0 (Herbicidal rate of 5% or less (almost no effect))"},
      {"measurement": "herbicidal effect on I: wild oat", "setting": "wild oat [5]", "value": "0 (Herbicidal rate of 5% or less (almost no effect))"},
      {"measurement": "herbicidal effect on K: Italian ryegrass", "setting": "Italian ryegrass [6]", "value": "0 (Herbicidal rate of 5% or less (almost no effect))"},
      {"measurement": "herbicidal effect on L: windgrass", "setting": "windgrass [7]", "value": "0 (Herbicidal rate of 5% or less (almost no effect))"},
      {"measurement": "herbicidal effect on M: velvetleaf", "setting": "velvetleaf [8]", "value": "0 (Herbicidal rate of 5% or less (almost no effect))"},
      {"measurement": "herbicidal effect on N: redroot pigweed", "setting": "redroot pigweed [9]", "value": "0 (Herbicidal rate of 5% or less (almost no effect))"},
      {"measurement": "herbicidal effect on O: lambsquarters", "setting": "lambsquarters [10]", "value": "0 (Herbicidal rate of 5% or less (almost no effect))"},
      {"measurement": "herbicidal effect on P: chickweed", "setting": "chickweed [11]", "value": "5 (Herbicidal rate of 90% or more (almost completely withered))"},
      {"measurement": "herbicidal effect on R: persian speedwell", "setting": "persian speedwell [12]", "value": "0 (Herbicidal rate of 5% or less (almost no effect))"},
      {"measurement": "herbicidal effect on F: southern crabgrass (criteria 0-5)", "setting": "southern crabgrass [13]", "value": "0 (Herbicidal rate of 5% or less (almost no effect))"},
      {"measurement": "herbicidal effect on G: green foxtail (criteria 0-5)", "setting": "green foxtail [14]", "value": "0 (Herbicidal rate of 5% or less (almost no effect))"},
      {"measurement": "herbicidal effect on H: barnyard grass (criteria 0-5)", "setting": "barnyard grass [15]", "value": "0 (Herbicidal rate of 5% or less (almost no effect))"},
      {"measurement": "herbicidal effect on I: wild oat (criteria 0-5)", "setting": "wild oat [16]", "value": "0 (Herbicidal rate of 5% or less (almost no effect))"},
      {"measurement": "herbicidal effect on J: blackgrass (criteria 0-5)", "setting": "blackgrass", "value": "0 (Herbicidal rate of 5% or less (almost no effect))"},
      {"measurement": "herbicidal effect on K: Italian ryegrass (criteria 0-5)", "setting": "Italian ryegrass [17]", "value": "0 (Herbicidal rate of 5% or less (almost no effect))"},
      {"measurement": "herbicidal effect on L: windgrass (criteria 0-5)", "setting": "windgrass [18]", "value": "0 (Herbicidal rate of 5% or less (almost no effect))"},
      {"measurement": "herbicidal effect on M: velvetleaf (criteria 0-5)", "setting": "velvetleaf [19]", "value": "3 (Herbicidal rate of 40% or more and less than 70%)"},
      {"measurement": "herbicidal effect on N: redroot pigweed (criteria 0-5)", "setting": "redroot pigweed [20]", "value": "5 (Herbicidal rate of 90% or more (almost completely withered))"},
      {"measurement": "herbicidal effect on O: lambsquarters (criteria 0-5)", "setting": "lambsquarters [21]", "value": "2 (Herbicidal rate of 20% or more and less than 40%)"},
      {"measurement": "herbicidal effect on P: chickweed (criteria 0-5)", "setting": "chickweed [22]", "value": "5 (Herbicidal rate of 90% or more (almost completely withered))"},
      {"measurement": "herbicidal effect on R: persian speedwell (criteria 0-5)", "setting": "persian speedwell [23]", "value": "3 (Herbicidal rate of 40% or more and less than 70%)"}
    ]}
  ]
}
